Here are results for 50 compounds from PubChem BioAssay (NCI).

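These data come from cells grown in 96-well plates and exposed to compound for 48 hours at five concentrations. GI50 = concentration required for 50% inhibition of growth. TGI marks complete inhibition of growth.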

Among the test systems are BT-549 breast; MDA-N; DLD-1 colon; KM20L2 colon; M19-MEL melanoma; LXFL 529 NSCLC; DMS 273 small cell lung.
Common to all, as to assay: DTP human tumour cell line panel, 48 h

On to `N#Cc1c(Oc2ccc(F)c(NC(=O)Cc3cccc(C(F)(F)F)c3)c2)ccc2nc(NC(=O)C3CC3)sc12`, for which, in the test on BT-549 breast, the GI50 is 2.71 µM and the TGI was greater than 100 µM.
On the same counts, the results for `Cc1cc2c(C(C)C)c(O)c(O)c(C=O)c2c(O)c1-c1c(C)cc2c(C(C)C)c(O)c(O)c(C=O)c2c1O` (tested in a mixture with another compound) are 1.26 µM and 3.76 µM.
As for `COc1cnc2c(c1)C(=O)c1c-2n(CCCN2CCN(CCO)CC2)c(=O)c2cc([N+](=O)[O-])ccc12`, in the test with BT-549 breast, the GI50 is 2.9 µM and the TGI is 18.9 µM.
On the same counts, the results for `C[C@@H]1CN2[C@H]3[C@@H]1CC[C@]31CCC(=O)O[C@]1(C)[C@@H]1CC[C@H]3CCC=C3[C@@H]12` are greater than 70 µM and greater than 70 µM.
On the same counts, the results for `O=C(CC1(O)C(=O)Nc2c(Cl)ccc(Cl)c21)c1ccc(C2CC2)cc1` (stereo not drawn) are 0.984 µM and 11 µM.
The matching figures for `C[C@@H](Oc1cc(-c2cnn(C3CC4(CCCNC4)C3)c2)cnc1N)c1c(Cl)ccc(F)c1Cl` (stereo partly drawn): 1.95 µM and 3.72 µM.
Turning to `O=C1c2cccc3cc([N+](=O)[O-])cc(c23)C(=O)N1O`, the TGI in the test on MDA-N and with BT-549 breast was greater than 100 µM each time.
Turning to `Cc1cccnc1CNC1CC(NCc2ncccc2C)CC(NCc2ncccc2C)C1` (stereo not drawn), in the test with BT-549 breast, the GI50 is 2.95 µM and the TGI came out at 7.82 µM.
On the same counts, the results for `CN(C)CCOc1nc2ccccc2c2c1-c1ccc(Cl)cc1C2=O` are 2.01 µM and 4.59 µM.
The matching figures for `CC(=O)OCC(=O)C1(O)C(C)CC2C3C=C(C)C4=Cc5c(cnn5-c5ccccc5)CC4(C)C3C(O)CC21C` (stereo not drawn): 1.25 µM and 3.85 µM.
In the test on MDA-N, `c1cnc2c(c1)Nc1cnncc1S2` returned a TGI greater than 100 µM.
For the compound `COc1ccc(-n2sc(=O)n(Cc3ccc(COC(=O)C(C)c4ccc(CC(C)C)cc4)cc3)c2=O)cc1` (stereo not drawn), in the test on BT-549 breast, the GI50 is 2.91 µM and the TGI turned out to be 9.37 µM.
For `CCOC(=O)C(Cc1ccc(OC)cc1)C(=O)OCC`, in the test with BT-549 breast, the GI50 is 3.25 µM and the TGI was 13.5 µM.
On the same counts, the results for `Cc1sc(/N=C2/NC(=O)CS2)nc1-c1nc(/N=C2/NC(=O)CS2)sc1C` are greater than 50 µM and greater than 50 µM.
On the same counts, the results for `Oc1[nH]c2ccc(Cl)cc2c1/C=c1/ccc2c(c1)N=C(c1cc(F)cc(F)c1)N=2` are 2.09 µM and 7.59 µM.
The matching figures for `C=C1C(=O)OC2CC3(C)OC3C3OC3C3=CC(OC3=O)C12` (stereo not drawn): 8.33 µM and 21.5 µM.
Turning to `O=C(NO)c1cnc(N2CCN(S(=O)(=O)c3ccc4ccccc4c3)CC2)nc1`, in the test with BT-549 breast, the GI50 is 0.803 µM and the TGI turned out to be 53.4 µM.
The matching figures for `CON`: greater than 100 µM and greater than 100 µM.
The matching figures for `CCc1ccccc1-n1c(N)c(C#N)c(-c2ccc(OC)c(OC)c2)c(C#N)c1=O`: 19.4 µM and 49.5 µM.
The matching figures for `CC(C)CNc1nc(N=[N+]=[N-])nc(NCC(C)C)n1`: greater than 10 µM and greater than 10 µM.
With `Brc1ccc(Br)nn1`, in the test with BT-549 breast, the GI50 is 1.52 µM and the TGI turned out to be 2.96 µM.
The matching figures for `CC[C@H](C)[C@H](NC(=O)C12CC(NC(C)=O)(C1)C2)C(=O)N(C)[C@H](C[C@@H](OC(C)=O)c1nc(C(=O)N[C@@H](Cc2ccccc2)C[C@H](C)C(=O)OC)cs1)C(C)C`: 0.0824 µM and 3.41 µM.
With `Nc1cccc2nsnc12`, the TGI in the test with MDA-N and in the test with BT-549 breast was greater than 100 µM throughout.
As for `CCNCCNc1cc(-c2cccc(C(F)(F)F)c2)c(C#N)c2nc3ccccc3n12`, in the test on BT-549 breast, the GI50 is 2.06 µM and the TGI is 3.75 µM.
With `CC(C)[O-].CC(C)[O-].[O-]c1cccc2cccnc12.[O-]c1cccc2cccnc12.[Ti+4]`, the GI50 in the test with DLD-1 colon is 4.97 µM. Besides, in the test on KM20L2 colon, the TGI was greater than 100 µM.
For the compound `CS[C@@]1(C(=O)Nc2ccc3[nH]nc(-c4ccc(OC(C)C)nc4)c3c2)CCN(CC(=O)N2CC=C(c3ccc(-c4ncn(C)n4)cc3)CC2)C1`, in the test on BT-549 breast, the GI50 is 9.43 µM and the TGI is greater than 100 µM.
In the case of `C=C=[CH][Sn]([c]1ccccc1)([c]1ccccc1)[c]1ccccc1`, the GI50 was 1.62 µM in the test on M19-MEL melanoma, 1.48 µM with DLD-1 colon, 1.58 µM in the test on LXFL 529 NSCLC and 2.02 µM in the test on KM20L2 colon. The TGI is 3.06 µM in the test with M19-MEL melanoma, 4.15 µM with DLD-1 colon, 3.02 µM in the test with LXFL 529 NSCLC and 4 µM in the test with KM20L2 colon.
Regarding `O=[N+]([O-])c1cc(/C=N/NS(=O)(=O)c2ccc(F)cc2)c(O)c([N+](=O)[O-])c1`, the TGI is greater than 100 µM in the test with M19-MEL melanoma, 98.9 µM in the test on DMS 273 small cell lung, greater than 100 µM in the test with DLD-1 colon and 59.3 µM in the test with KM20L2 colon.
The compound `OC(c1ccccc1)c1c(-c2ccccc2)oc(-c2ccccc2)c1C(O)c1ccccc1` (stereo not drawn) yielded a TGI with MDA-N of 24.6 µM.
For the compound `CC[C@@]1(OC(=O)CN)C(=O)OCc2c1cc1n(c2=O)Cc2cc3c(N)c4c(cc3nc2-1)OCO4`, in the test with MDA-N, the GI50 is 0.0127 µM and the TGI is greater than 100 µM. The GI50 in the test on BT-549 breast is 0.24 µM.
For `N#CSCC(=O)c1ccc(Cl)cc1`, in the test with BT-549 breast, the GI50 was 2.69 µM and the TGI was determined as 11.4 µM.
On the same counts, the results for `CN1CCN(c2ccc3nc4c(nc3c2C(F)(F)F)C(=O)c2ncccc2C4=O)CC1` are 1.58 µM and 3.07 µM.
On the same counts, the results for `COc1ccc(-c2cncn2-c2cc(OC)c(OC)c(OC)c2)cc1F` are less than 0.0291 µM and greater than 71.6 µM.
The matching figures for `COc1cccc(Nc2nccc(Nc3ccc4[nH]ncc4c3)n2)c1`: 1.67 µM and 3.71 µM.
Consider `Cc1c(N2C(=O)/C(=C\c3ccc(N(C)C)cc3)N=C2c2ccccc2)c(=O)n(-c2ccccc2)n1C`, for which, in the test on BT-549 breast, the GI50 is 63.7 µM and the TGI is greater than 100 µM.
As for `CSc1ccc(C2=NN(C(=O)c3ccc(N)cc3)C(c3ccc(F)cc3)C2)cc1` (stereo not drawn), in the test with BT-549 breast, the GI50 was 12.3 µM and the TGI came to 28.1 µM.
The matching figures for `N#CC[C@H](C1CCCC1)n1cc(-c2ncnc3[nH]ccc23)cn1`: 12.8 µM and 36 µM.
The matching figures for `CNCCOc1nc2c3cnccc3cc(-c3cc(OC)c(OC)c(OC)c3)c2c2ccncc12`: 0.103 µM and 0.613 µM.
Take `NC(=O)NC(=O)C1CCCCC1C(=O)O` (stereo not drawn): the TGI with MDA-N and with BT-549 breast was greater than 100 µM each time.
As to `COC(=O)Nc1nc2ccc(Sc3ccccc3)cc2[nH]1`, in the test with BT-549 breast, the GI50 was 1.04 µM and the TGI came to 18.8 µM.
The matching figures for `Cc1cc2nc3c4ccccc4n(CCN(C)C)c3nc2cc1C`: 2.07 µM and 6.25 µM.
The matching figures for `CCN(CC)c1ccc2nc3c4ccccc4c(=NC(=O)c4ccccc4-c4c5ccc(N(CC)CC)cc5[o+]c5cc(N(CC)CC)ccc45)cc-3oc2c1`: 14 µM and 30.8 µM.
The matching figures for `N#CC(C#N)=Cc1ccc(-c2ccc(-c3nc4ccccc4o3)cc2)o1`: greater than 100 µM and greater than 100 µM.
Consider `O=[N+]([O-])c1ccc(-c2ccccc2)c([As](=O)(O)O)c1`, for which, in the test with BT-549 breast, the GI50 is 47.2 µM and the TGI is greater than 100 µM.
On the same counts, the results for `CC(=O)N[C@@H](Cc1ccc(OP(=O)(O)O)cc1)C(=O)N[C@H]1CCC(=O)N2CCC[C@@H](C(=O)NCc3ccc(O)cc3)N2C1=O` are greater than 25 µM and greater than 25 µM.
With `COc1cc2c3c(c1O)C1(C=CC(=O)C=C1)CC3N(C)CC2` (stereo not drawn), the TGI was 24.2 µM with MDA-N and 30.6 µM in the test with BT-549 breast.
With `C/C(=N\Nc1cccc(Cl)n1)c1ccccn1`, in the test with BT-549 breast, the GI50 is 1.4 µM and the TGI is greater than 71.8 µM.
Turning to `CCC[CH2][Sn]1([CH2]CCC)[O]C(=O)c2cc(C)ccc2[O]1`, the GI50 is 0.519 µM with DMS 273 small cell lung, 0.537 µM in the test with DLD-1 colon, 0.129 µM in the test on LXFL 529 NSCLC and 1.35 µM with KM20L2 colon. Moreover, the TGI in the test on DMS 273 small cell lung stood at 1.73 µM; in the test on DLD-1 colon, 1.83 µM; in the test with LXFL 529 NSCLC it was 0.336 µM; with KM20L2 colon, 2.64 µM.
As to `COc1ccc(NC(=O)O[C@H]2[C@H](O[C@H]3[C@@H](O)COC(O[C@H]4C[C@H]5[C@@H]6CC=C7C[C@@H](O)CC[C@]7(C)[C@H]6CC[C@]5(C)[C@H]4[C@H](C)C(=O)CCC(C)C)[C@@H]3OC(C)=O)OC[C@@H](O)[C@@H]2O)cc1` (stereo partly drawn), in the test on BT-549 breast, the GI50 was less than 0.01 µM and the TGI stood at 11.3 µM.
On the same counts, the results for `ClC1=C(Cl)C(Cl)=C(Cl)C1=Cc1ccc(Cl)cc1` are 0.428 µM and 1.58 µM.

The GI50 is the concentration at which growth is held to half of that of the control. The term TGI denotes the concentration giving total growth inhibition. A lower TGI goes with greater sensitivity of the cells.
